Like-named read-outs stand apart in the source and are kept apart here.
Legend:
Format in all cases: cell-based
[1] = system: SNU719 cells; assay: MTS cell viability, inhibitor combined with EBV-specific T cells (Example 2); conditions: combination with EBV-specific T cells (25:1) vs individual treatment, 48 hrs; AZD6244 0.5 μM, trematinib 1.0 μM, JQ1 5.0 μM
Experimental: Cell viability assay was performed using the CellTiter 96® AQueous one cell viability assay reagent (Promega, WI, USA) for three biological replicates per EBV-associated cancer cell lines in triplicate. Briefly, the cancer cells (target cells) were plated at a density of 5000 cells per well in an overall media volume of 200 μL on a 96-well tissue-culture plate (BD Falcon™). The effector AdE1-LMPpoly transfected T cells were freshly thawed in RPMI-1640 with 10% FCS and 120 IU/mL of recombinant IL-2 at 37° C. and 50% CO2. Post 24 hrs of plating and incubation at 37° C. and 50% CO2, the effector T cells were mixed to the target cells at a gradient ratio of effector to target (E:T) of 5:1-100:1. The exact number of T cells (To) used per E:T ratio (ET) was independently used as control alongside PBS treated target cells (Es) and sole media (M0). After 24 hrs of incubation at 37° C. and 50% CO2, MTS was added to each well (1:100 dilution in media) and was incubated for 1 hour following which the plate was centrifuged at 1,200×g at room temperature for 5 min and absorbance of the mixture at an optical density of 490 nm was measured via a microplate reader. The relative cell viability was calculated using the following formula: […]

[2] = system: EBV-associated cell lines (nasopharyngeal and gastric cancer cell lines); assay: MTS cell viability assay, IC50 of inhibitors; conditions: for IC50: read-out: IC50 (~50% reduction in cell viability); for IC25 value (sub IC50 value): concentration chosen for in vitro combination treatment
Experimental: FIG. 9: Determining the IC50 value of MEK1/2 inhibitors. Representation of the cell viability performed using MTS assay after the indicated cell lines were incubated with 0.1 μM-5 μM of selumatinib (left panel) and trametinib (right panel) for 48 hours. The data are represented as the mean±SD from three independent experiments.
FIG. 14: Determining the IC50 value of JQ1 inhibitors. Representation of the cell viability performed using MTS assay after the indicated cell lines were incubated with 0.5 μM-10 μM of JQ1 for 48 hours. The data are represented as the mean±SD from three independent experiments.
Cell viability assay was performed using the CellTiter 96® AQueous one cell viability assay reagent (Promega, WI, USA) for three biological replicates per EBV-associated cancer cell lines in triplicate. Briefly, the cancer cells (target cells) were plated at a density of 5000 cells per well in an overall media volume of 200 μL on a 96-well tissue-culture plate (BD Falcon™). The effector AdE1-LMPpoly transfected T cells were freshly thawed in RPMI-1640 with 10% FCS and 120 IU/mL of recombinant IL-2 at 37° C. and […]. Post 24 hrs of plating and incubation at 37° C. and […], the effector T cells were mixed to the target cells at a gradient ratio of effector to target (E:T) of 5:1-100:1. The exact number of T cells (To) used per E:T ratio (ET) was independently used as control alongside PBS treated target cells (Es) and sole media (M0). After 24 hrs of incubation at 37° C. and […], MTS was added to each well (1:100 dilution in media) and was incubated for 1 hour following which the plate was centrifuged at 1,200×g at room temperature for 5 min and absorbance of the mixture at an optical density of 490 nm was measured via a microplate reader. The relative cell viability was calculated using the following formula: […]
To determine the upregulation of MAPK pathway in EBV-associated solid cancers, we first identified the IC50 value of MEK1/2 inhibitors (AZD6244 or selumetanib and trematinib) across nasopharyngeal and gastric cancer cell lines (with drug concertation ranging from 0.1 μM-5 μM). […] In the next set of experiments, we wanted to determine the impact of MEK1/2 inhibition in combination with allogeneic EBV-specific T cells on EBV-associated solid cancers. As such, we treated the respective EBV-associated cell lines (both gastric and nasopharyngeal) individually or in combination with MEK1/2 inhibitors (both selumetanib and trematinib) and EBV-specific T cells.
Similarly, we targeted MYC-dependent cancer intrinsic pathway using JQ1 inhibitor by first determining the IC50 value of the inhibitor across nasopharyngeal and gastric cancer cell lines (with drug concertation ranging from 0.5 μM-10 μM). […] To characterized the impact of JQ1 inhibition in combination with allogeneic EBV-specific T cells on EBV-associated cancer cells, we used IC25 value JQ1 (2.5 μM) alongside an effector to target ratio of 25:1 of the respective HLA matched allogeneic EBV-specific T cells in vitro. […] We also performed phenotypic characterization, using flow cytometry, of SNU719 and C666.1 cells after 16 hours of individual and dual treatment in vitro.

[3] = system: SNU719 cells; assay: Annexin V binding assay, inhibitor combined with EBV-specific T cells; conditions: combination with EBV-specific T cells (25:1) vs individual treatment, 48 hrs; AZD6244 0.5 μM, trematinib 1.0 μM, JQ1 5.0 μM
Experimental: We treated SNU719 cells (gastric cancer cells) with MEK1/2 inhibitor (AZD6244 (or selumetanib) and trematinib) at concentration of 0.5 μM and 1.0 μM respectively, as individual treatment or in combination with EBV-specific T cells (25:1) as effector to target ratio.
We treated SNU719 cells with JQ1 inhibitor at concentration of 5.0 μM, as individual treatment or in combination with EBV-specific T cells (25:1) as effector to target ratio.

[4] = system: SNU719 and C666.1 cells; assay: Flow cytometry of Ki67 and active Caspase 3 after individual and dual treatment; conditions: dual treatment with HLA matched T cells vs individual treatment, 16 hours
Experimental: (§1) FIG. 11: Impact of dual combination of MEK1/2 inhibitor and HLA matched allogeneic EBV specific T cells. (A) Cell growth curve highlight the rate of cellular proliferation of SNU719 (upper panel) and C666.1 (lower panel) observed in the presence of HLA-matched EBV specific T cells (effector-to-target ratio of 25:1) and selumatinib (1 μM) individually and in combination, measured using Xcellegence. The effect of individual and dual combination on (B) cell proliferation based on Ki67 and (C) cell death based on active Caspase-3 of SNU719 expression (upper panel) and C666.1 (lower panel), performed using flow cytometry. The data are represented as the mean±SD from three independent experiments. P-values were calculated using one-way ANOVA: ns=not significant, *p<0.05, **p<0.01, ***p<0.001 and ****p<0.0001.
FIG. 15: Impact of dual combination of JQ1 inhibitor and HLA matched allogeneic EBV-specific T cells. The cell viability measured by MTS assay highlighting the impact of a HLA-matched EBV specific T cells at the effector-to-target ratio of 25:1 and JQ1 (2.5 μM) in suppressing cellular growth individually and in combination after 48 hrs of incubation with indicated (A) gastric (SNU719, YCCLE1 (upper panel)) and nasopharyngeal cancer cells (C17, C666.1 (lower panel)). (B) Cell growth curve highlight the rate of cellular proliferation of SNU719 (upper panel) and C666.1 (lower panel) observed in the presence of HLA-matched EBV specific T cells (effector-to-target ratio of 25:1) and JQ1 (2.5 μM) individually and in combination, measured using Xcellegence. The effect of individual and dual combination on (C) cell proliferation based on Ki67 and (D) cell death based on active Caspase-3 of SNU719 expression (upper panel) and C666.1 (lower panel), performed using flow cytometry. The data are represented as the mean±SD from three independent experiments. P-values were calculated using one-way ANOVA: ns=not significant, *p<0.05, **p<0.01, ***p<0.001 and ****p<0.0001.
Further, to validate the impact of the combination on the cell proliferation of the EBV-associated cancer cells, we challenged SNU719 and C666.1 cells with individual and dual combination using Xcellegence. […] We also performed phenotypic characterization, using flow cytometry, of SNU719 and C666.1 cells after 16 hours of individual and dual treatment in vitro.
Similarly, we targeted MYC-dependent cancer intrinsic pathway using JQ1 inhibitor by first determining the IC50 value of the inhibitor across nasopharyngeal and gastric cancer cell lines (with drug concertation ranging from 0.5 μM-10 μM). […]

[5] = system: SNU719 and C666.1 cells; assay: Xcellegence cell growth curve (Example 3); conditions: dual combination with HLA matched T cells 25:1 vs individual treatment, selumatinib 1 μM, JQ1 2.5 μM
Experimental: as §1
FIG. 15: Impact of dual combination of JQ1 inhibitor and HLA matched allogeneic EBV-specific T cells. The cell viability measured by MTS assay highlighting the impact of a HLA-matched EBV specific T cells at the effector-to-target ratio of 25:1 and JQ1 (2.5 μM) in suppressing cellular growth individually and in combination after 48 hrs of incubation with indicated (A) gastric (SNU719, YCCLE1 (upper panel)) and nasopharyngeal cancer cells (C17, C666.1 (lower panel)). […] P-values were calculated using one-way ANOVA: ns=not significant, *p<0.05, **p<0.01, ***p<0.001 and ****p<0.0001. […]

Row | Structure (SMILES) | cell viability of SNU719 [1] | IC50 ([2]; 48 h) | IC25 value (sub IC50 value) [2] | binding of Annexin V among SNU719 cells [3] | cell death (Active Caspase 3 staining) [4] | cell proliferation (Ki67+ staining) [4] | rate of cell death (Xcellegence) [5] | IC50 ([2]; EBV-associated nasopharyngeal and gastric cancer cell lines, MTS assay, 48 hours, compared to NPC43 (EBV-))
1 | Cn1cnc2c(F)c(Nc3ccc(Br)cc3Cl)c(C(=O)NOCCO)cc21 [selumetanib] | significantly reduced | ~2.5 µM | 1 µM | significantly higher binding of Annexin V | significant cell death | significant loss of cell proliferation | faster cell death | 
2 | Cc1sc2c(c1C)C(c1ccc(Cl)cc1)=N[C@@H](CC(=O)OC(C)(C)C)c1nnc(C)n1-2 [JQ1] | significantly reduced |  | 2.5 µM | significantly higher binding of Annexin V | significant cell death | significant loss of cell proliferation | faster cell death | ~2.5 µM

— patent US20230210984A1, “ADOPTIVE IMMUNOTHERAPY” (The Council of the Queensland Institute of Medical Research, priority 2019, published 2023)
